In publication PMC10652874, “Investigation into the mechanism of action of the antimicrobial peptide epilancin 15X” (Frontiers in Microbiology, 2023):

Test system: S. carnosus TM300
Test: RNAseq differential gene expression
Assay type: cell-based, Staphylococcus carnosus
Procedure: For the RNAseq experiments, epilancin was added at sub-lethal concentration (0.5x MIC) to S. carnosus TM300 once the cultures reached an OD600 of 0.6. RNA was extracted 40 min after the treatment, using a FastRNA Pro Blue kit (MP Biomedicals). Both treated and parallel untreated samples were collected at the same time. Sequencing was performed at the Carver Biotechnology Center (UIUC). For RNAseq analysis, gene counts were read in to R (v3.1.1; [Team, 2014]), and 14/2441 genes were removed because they had fewer than 32 total counts across the six samples. edgeR’s (v3.6.7) TMM normalization ([Robinson and Oshlack, 2010]) plus negative binomial generalized log-linear model ([McCarthy et al., 2012]) was used to test for differential expression between treated and untreated groups, while accounting for pairing of U and T replicates from three different cultures. p-values were adjusted using the false discovery rate method ([Benjamini and Hochberg, 1995]).

Q: How did the “fold_change Sca_1501” value (hypothetical protein) turn out when Epilancin 15X was run?
A: 2.75

Q: And the “fold_change Sca_1502” value (hypothetical protein)?
A: 4.86

Q: And the “fold_change Sca_1504” value (hypothetical protein)?
A: 11.43

Q: What about the “fold_change Sca_1505” value (hypothetical protein) of the same substance?
A: 11.29

Q: And the “fold_change Sca_1506” value (hypothetical protein)?
A: 11.77

Q: And the “fold_change Sca_1507” value (hypothetical protein)?
A: 12.4

Q: And the “fold_change Sca_1508” value (hypothetical protein)?
A: 10.53

Q: And the “fold_change Sca_1509” value (hypothetical protein)?
A: 0.5

Q: And the “fold_change Sca_1523” value (hypothetical protein)?
A: 2.05

Q: And the “fold_change Sca_1526” value (hypothetical protein)?
A: 2.58

Q: And the “fold_change Sca_1532” value (hypothetical protein)?
A: 3.3

Q: And the “fold_change Sca_1533” value (hypothetical protein)?
A: 3.51

Q: And the “fold_change Sca_1534” value (hypothetical protein)?
A: 2.71

Q: What about the “fold_change Sca_1535” value (hypothetical protein) of the same substance?
A: 2.45

Q: And the “fold_change Sca_1536” value (hypothetical protein)?
A: 2.13

Q: And the “fold_change Sca_1587” value (hypothetical protein)?
A: 2.19

Q: What about the “fold_change Sca_1588” value (hypothetical protein) of the same substance?
A: 2.2

Q: What about the “fold_change Sca_1643” value (hypothetical protein) of the same substance?
A: 2.32

Q: What about the “fold_change Sca_1645” value (hypothetical protein) of the same substance?
A: 2.04

Q: And the “fold_change Sca_1650” value (hypothetical protein)?
A: 2.26

Q: What about the “fold_change Sca_1667” value (hypothetical protein) of the same substance?
A: 3.97

Q: What about the “fold_change Sca_1668” value (hypothetical protein) of the same substance?
A: 3.55

Q: What about the “fold_change Sca_1674” value (hypothetical protein) of the same substance?
A: 2.34

Q: What about the “fold_change Sca_1675” value (hypothetical protein) of the same substance?
A: 3.21

Q: What about the “fold_change Sca_1681” value (hypothetical protein) of the same substance?
A: 2.25

Q: And the “fold_change Sca_1686” value (hypothetical protein)?
A: 4.82

Q: And the “fold_change Sca_1687” value (hypothetical protein)?
A: 4.15

Q: What about the “fold_change Sca_1689” value (hypothetical protein) of the same substance?
A: 2.35

Q: What about the “fold_change Sca_1737” value (hypothetical protein) of the same substance?
A: 2.07

Q: What about the “fold_change Sca_1738” value (hypothetical protein) of the same substance?
A: 2.11

Q: What about the “fold_change Sca_1755” value (hypothetical protein) of the same substance?
A: 3.06

Q: What about the “fold_change Sca_1788” value (hypothetical protein) of the same substance?
A: 3.57

Q: And the “fold_change Sca_1804” value (hypothetical protein)?
A: 5.16

Q: What about the “fold_change Sca_1805” value (hypothetical protein) of the same substance?
A: 2.14

Q: What about the “fold_change Sca_1807” value (hypothetical protein) of the same substance?
A: 2.04

Q: And the “fold_change Sca_1815” value (hypothetical protein)?
A: 0.5

Q: And the “fold_change Sca_1838” value (hypothetical protein)?
A: 2.29

Q: What about the “fold_change Sca_1862” value (hypothetical protein) of the same substance?
A: 0.49

Q: What about the “fold_change Sca_1869” value (hypothetical protein) of the same substance?
A: 2.26

Q: What about the “fold_change Sca_1903” value (hypothetical protein) of the same substance?
A: 4.81

Q: And the “fold_change Sca_1904” value (hypothetical protein)?
A: 2.54

Q: What about the “fold_change Sca_1905” value (hypothetical protein) of the same substance?
A: 2.54

Q: What about the “fold_change Sca_1906” value (hypothetical protein) of the same substance?
A: 2.34

Q: What about the “fold_change Sca_1917” value (hypothetical protein) of the same substance?
A: 2.88

Q: What about the “fold_change Sca_1954” value (hypothetical protein) of the same substance?
A: 2.15

Q: And the “fold_change Sca_1959” value (hypothetical protein)?
A: 7.97

Q: What about the “fold_change Sca_1992” value (hypothetical protein) of the same substance?
A: 2.15

Q: What about the “fold_change Sca_2001” value (hypothetical protein) of the same substance?
A: 2.07

Q: What about the “fold_change Sca_2004” value (hypothetical protein) of the same substance?
A: 2.83

Q: What about the “fold_change Sca_2009” value (hypothetical protein) of the same substance?
A: 4.15

Q: What about the “fold_change Sca_2014” value (hypothetical protein) of the same substance?
A: 2.23

Q: And the “fold_change Sca_2018” value (hypothetical protein)?
A: 2.95

Q: And the “fold_change Sca_2020” value (hypothetical protein)?
A: 2.38

Q: And the “fold_change Sca_2021” value (hypothetical protein)?
A: 2.73

Q: And the “fold_change Sca_2022” value (hypothetical protein)?
A: 2.89

Q: And the “fold_change Sca_2023” value (hypothetical protein)?
A: 3.49

Q: And the “fold_change Sca_2024” value (hypothetical protein)?
A: 8.09

Q: What about the “fold_change Sca_2051” value (hypothetical protein) of the same substance?
A: 2.03

Q: What about the “fold_change Sca_2066” value (hypothetical protein) of the same substance?
A: 2.09

Q: What about the “fold_change Sca_2098” value (hypothetical protein) of the same substance?
A: 2.16

Q: What about the “fold_change Sca_2099” value (hypothetical protein) of the same substance?
A: 2

Q: What about the “fold_change Sca_2122” value (hypothetical protein) of the same substance?
A: 2.08

Q: And the “fold_change Sca_2131” value (hypothetical protein)?
A: 4.04

Q: And the “fold_change Sca_2132” value (hypothetical protein)?
A: 2.49

Q: What about the “fold_change Sca_2133” value (hypothetical protein) of the same substance?
A: 2.15

Q: What about the “fold_change Sca_2136” value (hypothetical protein) of the same substance?
A: 3

Q: And the “fold_change Sca_2141” value (hypothetical protein)?
A: 2.34

Q: And the “fold_change Sca_2182” value (hypothetical protein)?
A: 0.5

Q: What about the “fold_change Sca_2186” value (hypothetical protein) of the same substance?
A: 2.4

Q: And the “fold_change Sca_2187” value (hypothetical protein)?
A: 2.82

Q: And the “fold_change Sca_2188” value (hypothetical protein)?
A: 5.77

Q: And the “fold_change Sca_2193” value (hypothetical protein)?
A: 5.14

Q: What about the “fold_change Sca_2202” value (hypothetical protein) of the same substance?
A: 2.52

Q: And the “fold_change Sca_2207” value (hypothetical protein)?
A: 2.06

Q: What about the “fold_change Sca_2209” value (hypothetical protein) of the same substance?
A: 2.42

Q: What about the “fold_change Sca_2213” value (hypothetical protein) of the same substance?
A: 2.61

Q: And the “fold_change Sca_2215” value (hypothetical protein)?
A: 3.52

Q: And the “fold_change Sca_2221” value (hypothetical protein)?
A: 2.48

Q: And the “fold_change Sca_2222” value (hypothetical protein)?
A: 2.24

Q: What about the “fold_change Sca_2226” value (hypothetical protein) of the same substance?
A: 3.16

Q: And the “fold_change Sca_2228” value (hypothetical protein)?
A: 3.64

Q: What about the “fold_change Sca_2229” value (hypothetical protein) of the same substance?
A: 3.47

Q: And the “fold_change Sca_2230” value (hypothetical protein)?
A: 2.6

Q: What about the “fold_change Sca_2231” value (hypothetical protein) of the same substance?
A: 2.37

Q: And the “fold_change Sca_2235” value (hypothetical protein)?
A: 2.04

Q: And the “fold_change Sca_2236” value (hypothetical protein)?
A: 2.08

Q: What about the “fold_change Sca_2253” value (hypothetical protein) of the same substance?
A: 0.5

Q: And the “fold_change Sca_2268” value (hypothetical protein)?
A: 3.5

Q: What about the “fold_change Sca_2269” value (hypothetical protein) of the same substance?
A: 3.56

Q: And the “fold_change Sca_2273” value (hypothetical protein)?
A: 11.9

Q: What about the “fold_change Sca_2275” value (hypothetical protein) of the same substance?
A: 3.1

Q: And the “fold_change Sca_2284” value (hypothetical protein)?
A: 0.49

Q: What about the “fold_change Sca_2295” value (hypothetical protein) of the same substance?
A: 4.48

Q: What about the “fold_change Sca_2296” value (hypothetical protein) of the same substance?
A: 2.39

Q: What about the “fold_change Sca_2297” value (hypothetical protein) of the same substance?
A: 2.21

Q: What about the “fold_change Sca_2299” value (hypothetical protein) of the same substance?
A: 5.46

Q: And the “fold_change Sca_2301” value (hypothetical protein)?
A: 2.01

Q: And the “fold_change Sca_2334” value (hypothetical protein)?
A: 5.35

Q: And the “fold_change Sca_2337” value (hypothetical protein)?
A: 2.1

Q: What about the “fold_change Sca_2358” value (hypothetical protein) of the same substance?
A: 2.95

Q: And the “fold_change Sca_2370” value (hypothetical protein)?
A: 2.53

Q: What about the “fold_change Sca_2373” value (hypothetical protein) of the same substance?
A: 3.45

Q: What about the “fold_change Sca_2379” value (hypothetical protein) of the same substance?
A: 3.04

Q: And the “fold_change Sca_2384” value (hypothetical protein)?
A: 2.31

Q: What about the “fold_change Sca_2385” value (hypothetical protein) of the same substance?
A: 3.04

Q: And the “fold_change Sca_2386” value (hypothetical protein)?
A: 2.57

Q: What about the “fold_change Sca_2398” value (hypothetical protein) of the same substance?
A: 19.58

Q: What about the “fold_change Sca_2399” value (hypothetical protein) of the same substance?
A: 20.62

Q: What about the “fold_change Sca_2424” value (hypothetical protein) of the same substance?
A: 2.19

Q: What about the “fold_change Sca_2425” value (hypothetical protein) of the same substance?
A: 2.2

Q: What about the “fold_change Sca_2426” value (hypothetical protein) of the same substance?
A: 3.85

Q: What about the “fold_change Sca_2435” value (hypothetical protein) of the same substance?
A: 6.09

Q: And the “fold_change Sca_2436” value (hypothetical protein)?
A: 5.9

Q: And the “fold_change Sca_2437” value (hypothetical protein)?
A: 4.25

Q: And the “fold_change Sca_2457” value (hypothetical protein)?
A: 3.07

Q: And the “fold_change orf1” value (hypothetical protein)?
A: 2.79

Q: What about the “fold_change ydfG” value (hypothetical protein) of the same substance?
A: 5.22

Q: What about the “fold_change Sca_1639” value (hypothetical protein, gene fmhA') of the same substance?
A: 2.76

Q: What about the “fold_change Sca_1638” value (hypothetical protein, gene fmhA'') of the same substance?
A: 3.24

Q: And the “fold_change Sca_1124” value (iron uptake regulatory protein, gene fur)?
A: 2.1

Q: What about the fold_change geh (lipase (fragment 1), gene geh') of the same substance?
A: 2.82

Q: What about the “fold_change geh'” value (lipase (fragment 2), gene geh'') of the same substance?
A: 2.62

Q: What about the “fold_change Sca_0327” value (lysine decarboxlyase family protein) of the same substance?
A: 5.96

Q: What about the “fold_change dnaK” value (molecular chaperone DnaK) of the same substance?
A: 2.67

Q: What about the “fold_change moeA” value (molybdopterin biosynthesis protein MoeA) of the same substance?
A: 2.6
